Results taken from patent publication US20180214395A1 (priority 2017, published 2018).
pIC50: −log10 of the molar value. Where “and” joins values, the source holds several entries; their conditions need not be identical. Equal values may be shown once. Entries after “also recorded” stand apart in the source; their conditions may differ.

What was measured:
[1] = Modified Mini Mental State (3MS) in patients with chronic cancer pain (phase I-2a study); type: in vivo, human; details: 40 mg every 12 hours for 12 days
[2] = human, in vivo
Forced swim test = type: in vivo, rat; details: for Immobility, Mean frequency / Swimming, Mean frequency: single administration 24 hours prior, 60 counts per subject; for Immobility, Mean Diff. (Fisher's PLSD) / Swimming, Mean Diff. (Fisher's PLSD): Vehicle minus treatment
BDNF = BDNF levels (ELISA) in MAD study subjects; type: in vivo, human; details: for BDNF, individual subjects: hydrochloride
[3] = Body weight gain in rats (chronic constrictive nerve injury model experiment); type: in vivo; details: rat
[4] = target: serotonin transporter (SERT or 5-HT) (Rattus norvegicus, UniProt P31652)
[5] = MAD study: pupillary constriction; type: in vivo, human; details: mean (SD)
[6] = Female urine sniffing test (FUST); type: in vivo; details: rat; 24 hr after single dose; ketamine 10 mg/kg ip, d-methadone 20 mg/kg sc
[7] = in vivo
[8] = Clinical Opiate Withdrawal Scale (COWS) after abrupt discontinuation, MAD study; details: abrupt discontinuation after 10 consecutive days
[9] = target: T1, norepinephrine transporter (NET) (Rattus norvegicus, UniProt Q63380); assay: Norepinephrine uptake assay; type: biochemical
T1 construct: tissue Eurofins Cerep; host or cells: rat hypothalamus synaptosomes (own knowledge of the vendor's assay)

[10] = Bond-Lader Visual Analog Scale (cognitive and psychotomimetic effects), SAD and MAD studies
[11] = 2-3-5 hours after single dose 5 mg, SAD

serotonin transporter (SERT or 5-HT), sequence (P31652 whole entry): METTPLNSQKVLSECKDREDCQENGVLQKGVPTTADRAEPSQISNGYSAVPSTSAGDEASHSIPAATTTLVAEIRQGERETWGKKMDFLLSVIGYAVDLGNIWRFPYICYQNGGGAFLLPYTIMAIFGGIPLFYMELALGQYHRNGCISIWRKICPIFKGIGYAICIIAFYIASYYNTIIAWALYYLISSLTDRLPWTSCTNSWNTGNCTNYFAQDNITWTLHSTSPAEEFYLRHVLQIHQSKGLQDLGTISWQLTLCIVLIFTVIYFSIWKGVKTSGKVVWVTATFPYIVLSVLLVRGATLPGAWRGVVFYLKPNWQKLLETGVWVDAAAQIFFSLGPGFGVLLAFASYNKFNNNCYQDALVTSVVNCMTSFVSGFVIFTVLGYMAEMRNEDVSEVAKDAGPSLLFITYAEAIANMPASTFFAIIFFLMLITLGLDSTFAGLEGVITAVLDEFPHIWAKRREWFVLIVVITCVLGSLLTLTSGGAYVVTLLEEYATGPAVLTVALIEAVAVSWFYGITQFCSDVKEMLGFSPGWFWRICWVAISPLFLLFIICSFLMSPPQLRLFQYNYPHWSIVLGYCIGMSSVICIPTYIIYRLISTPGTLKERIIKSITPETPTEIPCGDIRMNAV
T1 sequence (Q63380 1-617): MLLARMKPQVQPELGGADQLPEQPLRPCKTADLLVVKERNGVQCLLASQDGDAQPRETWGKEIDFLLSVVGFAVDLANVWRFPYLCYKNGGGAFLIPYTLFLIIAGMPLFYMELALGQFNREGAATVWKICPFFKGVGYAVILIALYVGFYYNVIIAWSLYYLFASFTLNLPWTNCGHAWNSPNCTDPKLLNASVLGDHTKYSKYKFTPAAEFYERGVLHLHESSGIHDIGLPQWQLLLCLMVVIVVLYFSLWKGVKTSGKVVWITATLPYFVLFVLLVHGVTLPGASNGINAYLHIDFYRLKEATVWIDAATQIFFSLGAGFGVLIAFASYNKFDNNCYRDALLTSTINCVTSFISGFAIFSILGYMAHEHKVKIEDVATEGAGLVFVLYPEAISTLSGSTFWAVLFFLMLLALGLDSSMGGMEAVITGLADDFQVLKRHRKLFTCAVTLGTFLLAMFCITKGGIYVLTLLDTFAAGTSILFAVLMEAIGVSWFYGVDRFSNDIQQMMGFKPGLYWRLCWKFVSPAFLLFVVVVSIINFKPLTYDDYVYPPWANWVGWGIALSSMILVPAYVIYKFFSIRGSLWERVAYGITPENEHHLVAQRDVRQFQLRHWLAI

Question: For `CCC(=O)C(C[C@H](C)N(C)C)(c1ccccc1)c1ccccc1` [d-methadone], which “Patients with 3MS improvement by at least one point” value [1] is on record?
Answer: Its value is “five out of six”.

Question: And the “Maximum QTcF interval observed” value ([2]; both)?
Answer: The value was 462 ms.

Question: And the “Model-predicted ΔΔQT effect at geometric mean plasma concentration” value ([2]; both)?
Answer: Its value is 16.0 to 21.0 ms.

Question: And the “QTc, individual prolonged value” ([2]; male)?
Answer: The value was 434 ms.

Question: What about the “Immobility, Mean frequency” value (Forced swim test; 10 mg/kg) of the same molecule?
Answer: Its value is 31.400.

Question: What about the “Swimming, Mean frequency” value (Forced swim test; 10 mg/kg) of the same molecule?
Answer: Its value is 20.200.

Question: What about the “Immobility, Mean frequency” value (Forced swim test; 20 mg/kg) of the same molecule?
Answer: Its value is 23.556.

Question: And the “Swimming, Mean frequency” value (Forced swim test; 20 mg/kg)?
Answer: Its value is 32.667.

Question: And the “Immobility, Mean frequency” value (Forced swim test; 40 mg/kg)?
Answer: Its value is 23.200.

Question: And the “Swimming, Mean frequency” value (Forced swim test; 40 mg/kg)?
Answer: The value was 26.200.

Question: And the “Immobility, Mean Diff. (Fisher's PLSD)” value (Forced swim test; 10 mg/kg)?
Answer: Its value is 17.600.

Question: What about the “Swimming, Mean Diff. (Fisher's PLSD)” value (Forced swim test; 10 mg/kg) of the same molecule?
Answer: Its value is −12.978.

Question: And the “Immobility, Mean Diff. (Fisher's PLSD)” value (Forced swim test; 20 mg/kg)?
Answer: Its value is 25.444.

Question: And the “Swimming, Mean Diff. (Fisher's PLSD)” value (Forced swim test; 20 mg/kg)?
Answer: The value was −25.444.

Question: And the “Immobility, Mean Diff. (Fisher's PLSD)” value (Forced swim test; 40 mg/kg)?
Answer: The value was 25.800.

Question: What about the “Swimming, Mean Diff. (Fisher's PLSD)” value (Forced swim test; 40 mg/kg) of the same molecule?
Answer: The value was −18.978.

Question: And the “Subjects with increase in BDNF levels post treatment vs pre-treatment” value (BDNF; 25 mg a day for ten days)?
Answer: The value was 6 of 6.

Question: And the BDNF serum levels (BDNF; 25 mg, healthy volunteers)?
Answer: Its BDNF serum levels is “significantly increases”.

Question: And the “BDNF levels after treatment vs pre-treatment” value (BDNF; 50 mg and 75 mg doses, not statistically significant against placebo)?
Answer: Its value is “consistently showed an increase”.

Question: What about the “BDNF, individual subjects” value (BDNF; Day 2 hr 4, 25 mg a day oral) of the same molecule?
Answer: Its value is “BDNF 3.603 ng/L; also recorded: BDNF 2.529 ng/L; also recorded: BDNF 2.038 ng/L; also recorded: BDNF 1.862 ng/L; also recorded: BDNF 8.995 ng/L; also recorded: BDNF 2.750 ng/L”.

Question: What about the “BDNF, individual subjects” value (BDNF; Day 6 hr 4, 25 mg a day oral) of the same molecule?
Answer: Its value is 4.820 ng/mL and 2.920 ng/mL and 2.348 ng/mL and 2.458 ng/mL and 3.790 ng/mL.

Question: What about the “BDNF, individual subjects” value (BDNF; Day 10 hr 4, 25 mg a day oral) of the same molecule?
Answer: The value was 4.004 ng/mL and 10.697 ng/mL and 2.853 ng/mL and 4.347 ng/mL and 5.459 ng/mL and 3.733 ng/mL.

Question: And the “BDNF, individual subjects” value (BDNF; Pre-Treatment (baseline), MAD 25 mg subjects)?
Answer: Its value is 1.143 ng/mL and BDNF 0.612 ng/mL and 0.376 ng/mL and 0.460 ng/mL and 0.497 ng/mL and 1.922 ng/mL.

Question: And the “BDNF_T0 Mean” value (BDNF; baseline, w/o placebo, N 6)?
Answer: The value was “.83100 ng/mL”.

Question: And the “BDNF_D2 Mean” value (BDNF; day 2, 25 mg a day, w/o placebo, N 6)?
Answer: The value was 3.63 ng/mL.

Question: And the “BDNF_D6 Mean” value (BDNF; day 6, 25 mg a day, w/o placebo, N 5)?
Answer: Its value is 3.267 ng/mL.

Question: And the “BDNF_D10 Mean” value (BDNF; day 10, 25 mg a day, w/o placebo, N 6)?
Answer: The value was 5.182 ng/mL.

Question: What about the “mean weight gain baseline to day 15” value ([3]; 10 mg/kg s.c. once daily 15 days) of the same molecule?
Answer: The value was 41 grams.

Question: And the “mean weight gain baseline to day 15” value ([3]; 20 mg/kg s.c. once daily 15 days)?
Answer: Its value is 36 grams.

Question: And the “Body weight gain vs vehicle-treated animals” value ([3]; 40 mg/kg S.C. once daily for 15 days)?
Answer: Its value is “lower weight gain”.

Question: And the “mean weight gain baseline to day 15” value ([3]; 40 mg/kg s.c. once daily 15 days)?
Answer: The value was 22 grams.

Question: What about the inhibition [4] of the same molecule?
Answer: The inhibition was 91% and 92.7% and 89.3%.

Question: What about the “Greatest mean pupillary constriction (MPC)” value ([5]; MAD 25 mg, Day 9) of the same molecule?
Answer: Its value is −1.32 (0.553) mm.

Question: What about the “Greatest mean pupillary constriction (MPC)” value ([5]; MAD 50 mg, Day 6) of the same molecule?
Answer: Its value is −1.43 (0.175) mm.

Question: What about the “Greatest mean pupillary constriction (MPC)” value ([5]; MAD 75 mg, Day 5) of the same molecule?
Answer: Its value is −2.24 (0.619) mm.

Question: And the “FUST: time sniffing water” value [6]?
Answer: The value was “no effect”.

Question: What about the “FUST: time spent sniffing female urine vs vehicle” value [6] of the same molecule?
Answer: Its value is “increased”.

Question: What about the Tolerability [7] of the same molecule?
Answer: The Tolerability was “well tolerated”.

Question: What about the “Withdrawal symptoms (COWS)” value [8] of the same molecule?
Answer: The value was “did not cause symptoms of withdrawal”.

Question: And the pIC50 [9]?
Answer: The pIC50 was 5.09.

Question: What about the “norepinephrine uptake, % inhibition” value ([9]; 1.0E−05 M) of the same molecule?
Answer: The value was 61.6%.

Question: And the “Inhibition of norepinephrine uptake by NET” value ([9]; […])?
Answer: Its value is “significant inhibition”.

Question: And the “Bond-Lader VAS mean score: I am feeling drowsy (0: Alert, 100: Drowsy)” value [10, 11]?
Answer: The value was 19.1.

Question: What about the “Bond-Lader VAS mean score: I am feeling proficient (0: Incompetent, 100: Proficient)” value [10, 11] of the same molecule?
Answer: The value was 93.6.

Question: And the “Bond-Lader VAS mean score: I am feeling quick witted (0: Mentally slow, 100: Quick witted)” value [10, 11]?
Answer: Its value is 91.8.

Question: What about the “Bond-Lader Visual Analog Scale, domains of mental alertness and cognitive functions, vs placebo arm” value ([10]; SAD 5 mg single dose, 2-3-5 hours post dose) of the same molecule?
Answer: The value was “improved scores”.

Question: What about the “Cognitive deficits or psychotomimetic effects (Bond-Lader Visual Analog Scale)” value ([10]; healthy subjects of SAD and MAD studies) of the same molecule?
Answer: Its value is “did not cause clinically significant cognitive deficits or psychotomimetic effects”.
